According to paper PMC8016666, “A novel combination therapy targeting ubiquitin-specific protease 5 in MYCN-driven neuroblastoma” (Oncogene, 2021):

Target: T1, USP5 (Homo sapiens, UniProt P45974)
T1 construct: full-length
T1 sequence (P45974 2-858): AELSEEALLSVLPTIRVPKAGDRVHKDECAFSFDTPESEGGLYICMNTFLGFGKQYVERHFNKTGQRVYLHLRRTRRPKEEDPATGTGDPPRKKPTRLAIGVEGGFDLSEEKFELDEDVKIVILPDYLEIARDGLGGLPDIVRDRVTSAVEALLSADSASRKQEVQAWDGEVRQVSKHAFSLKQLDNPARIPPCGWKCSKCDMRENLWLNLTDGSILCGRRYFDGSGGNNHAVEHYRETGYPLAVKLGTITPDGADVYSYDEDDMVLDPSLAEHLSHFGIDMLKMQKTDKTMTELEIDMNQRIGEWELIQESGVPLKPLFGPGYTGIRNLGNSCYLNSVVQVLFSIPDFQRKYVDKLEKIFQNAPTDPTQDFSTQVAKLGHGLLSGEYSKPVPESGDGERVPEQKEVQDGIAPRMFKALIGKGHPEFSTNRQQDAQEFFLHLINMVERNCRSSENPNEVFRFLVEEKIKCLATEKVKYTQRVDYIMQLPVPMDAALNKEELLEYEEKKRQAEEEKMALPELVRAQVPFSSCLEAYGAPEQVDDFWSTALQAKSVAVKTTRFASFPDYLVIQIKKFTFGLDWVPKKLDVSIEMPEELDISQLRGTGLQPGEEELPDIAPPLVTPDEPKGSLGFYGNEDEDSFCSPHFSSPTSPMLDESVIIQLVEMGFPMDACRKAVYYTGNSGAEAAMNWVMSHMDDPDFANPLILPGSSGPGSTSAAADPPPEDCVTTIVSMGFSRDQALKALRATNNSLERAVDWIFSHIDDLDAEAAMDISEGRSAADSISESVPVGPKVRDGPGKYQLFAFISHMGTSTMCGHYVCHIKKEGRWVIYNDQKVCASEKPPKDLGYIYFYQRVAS
Experiment: microscale thermophoresis with purified labelled USP5
Format: binding

Structure (SMILES): O=C(CCCCCCC(=O)Nc1ccccc1)NO [SAHA]
- Kd: 2760 nM
